Experimental data reported in the NIST ThermoML archive (doi:10.1016/j.jct.2004.07.024).
Numbers after ± are expanded uncertainties.

How the values were obtained:
[1] = 298.15 K; 101.33 kPa; Liquid
[2] = refractive index (Na D-line) (dimensionless); details: 293.15 K; 101.33 kPa; Liquid; Standard Abbe refractometry

With `C=Cc1ccccc1` [styrene] the mass density [1] was 901.51 ± 0.54 kg/m3 and the refractive index [2] was 1.546 ± 0.0005.

In the case of `CCc1ccccc1` [ethylbenzene], the mass density [1] is reported as 862.44 ± 0.55 kg/m3 and the refractive index [2] is reported as 1.4962 ± 0.0005.

`Cc1ccccc1` [toluene] gave a mass density [1] of 862.14 ± 0.94 kg/m3 and a refractive index [2] of 1.4965 ± 0.0006.

With `c1ccccc1` [benzene] the mass density [1] was 873.56 ± 0.35 kg/m3 and the refractive index [2] was 1.5009 ± 0.0004.

Work on `C[S+](C)[O-]` [dimethyl sulfoxide] yielded a mass density [1] of 1095.62 ± 0.32 kg/m3 and a refractive index [2] of 1.4785 ± 0.0004.
